From US20130150317A1, “COMPOUNDS FOR THE TREATMENT OF RENAL CELL CARCINOMA” (Myrovlytis Technology Ventures Limited, priority 2010, published 2013)
Read-outs that look alike come from different tables or passages of the source.

How the values were obtained:
UOK257-FLCN^+ cells = assay: SRB growth inhibition assay in UOK257-FLCN^+ cells; type: cell-based, human
From the text: (§1) Human renal carcinoma of BHD origin cells UOK-257 (UOK-FLCN^−) and FLCN transfected UOK-257 cells UOK-FLCN^+ (Yang et al Cancer Genet Cytogenet. 2008 Jan. 15; 180(2):100-9) were provided by Dr Marston Linehan and Dr. Laura S Schmidt (Urologic Oncology Branch, Centre for Cancer Research, National Cancer Institute, National Institutes of Health, Bethesda, Md. 20892, USA). UOK-257 is the only RCC cell line that has been derived from a patient with BHD and harbours a germline FLCN frameshift mutation (c.1285dupC) (predicted, in the absence of nonsense mediated mRNA decay, to lead to premature protein truncation (p.His429ProfsX27) (Yang et al., Cancer Genet Cytogenet, 2008 Jan. 15; 180(2):100-9). We are not aware of any sporadic RCC cell lines with homozygous FLCN inactivation. FTC-133 cells were purchased from ECACC (Salisbury, United Kingdom). These cells are a non-RCC cell line derived from human thyroid carcinoma. 786-0 cells were available from the author's lab (Clifford et al., Hum Mol Genet. 2001 May 1; 10(10):1029-38). 786-O is a kidney cancer cell line that harbours an inactivating VHL gene mutation (c.311delG p.G104fs*55). All cell lines were cultured in DMEM with supplement of 10% foetal bovine serum except for FTC-133 cells which were incubated in medium with DMEM and Hens (1:1).
(§2) The sensitivity of the cell lines to drug-induced cell growth inhibition was determined using the sulphorhodamine B assay (SRB) as described by Lu et al., Clin Cancer Res. 2001:7:2114-23. Briefly, adherent exponentially growing cells were seeded into 96-well plates at 3-5×10^3 cells/100 μl/well. After 20-24 h at 37° C., drugs were added at the appropriate drug concentrations to the wells (final DMSO conc. 1%) as indicated in the Results section. […] The absorbance per well was measured at 570 nm on a Victor X3 Multilabel Plate Reader (PerkinElmor, Beaconsfield, United Kingdom).
UOK-257 is the only RCC cell line that has been derived from a patient with BHD and harbours a germline FLCN frameshift mutation (c.1285dupC) (predicted, in the absence of nonsense mediated mRNA decay, to lead to premature protein truncation (p.His429ProfsX27) (Yang et al Cancer Genet Cytogenet, 2008 Jan. 15; 180(2):100-9). Both UOK257-FLCN^− and UOK257-FLCN^+ cells were examined for their sensitivities to growth inhibition induced by 15 compounds selected from the COMPARE analysis. Various concentrations of compounds were introduced into the cells 24 hrs after seeding, incubation was continued for 72 hours and growth inhibition was assessed using the suiphorhodamine B (SRB) assay. GI50 values, defined as the concentration of compounds required to inhibit growth by 50%, were then calculated. The ratio of GI50 value from UOK257-FLCN^+ and UOK257-FLCN^− were calculated and used as an indicator for the sensitivity to FLCN mutant cells.

[1] = test system: UOK257-FLCN^− and UOK257-FLCN^+ cells; assay: CellTiter-Blue cell viability assay in UOK-257 cells with/without FLCN expression; type: cell-based, human; settings: 200 nM, 48 hrs
Method: The ability to induce caspase 3/7 activation after exposure to compounds was measured by Caspase-Glo 3/7 Assay (Promega, Southampton, United Kingdom) according to manufacturer's instruction. The cells were seeded and dosed as described in growth inhibition assay. At the end of incubation, 70 μl of medium was removed and 30 μl of assay reagent was added to the remaining medium. Additional one hour incubation with shaking was carried out at room temperature. The resultant luminescent light was measured in a Victor X3 Multilabel Plate Reader (PerkinElmer, Beaconsfield, United Kingdom). Cell viability after compound exposure was determined by CellTiter-Blue Cell Viability Assay (Promega, Southampton, the United Kingdom) according to manufacturer's instruction. At the end of drug treatment, 20 μl of reagent was added to the medium in 96 wells and the cells were incubated for additional 4 hours. The cell viability was measured by fluorescence with a 570 nm excitation and 590 nm emission set in a Victor X3 Multilabel Plate Reader (PerkinElmer, Beaconsfield, United Kingdom).
These were calculated and used as indicators for the sensitivity to mutant FLCN cells. Cells were exposed continuously to the indicated concentrations of drugs for 48 hours. Values are the mean±SD from at least three experiments.

[2] = test system: 786-O cells with mutant VHL; assay: SRB growth inhibition in 786-O cells with mutant VHL; type: cell-based, human
From the text: as §1, §2
Cells were exposed continuously to various concentrations of drugs for 72 hours. GI50 values were determined as the concentrations at 50% growth inhibition from at least three experiments.

[3] = test system: FTC-133 cells with FLCN expressed at low levels; assay: SRB growth inhibition in FTC-133 cells, low FLCN expression; type: cell-based; settings: Homo sapiens, SRB assay
From the text: as §1, with “786-O is a kidney cancer cell line that harbours an inactivating VHL gene mutation (c.311delG p.G104fs*55). All cell lines were cultured in DMEM with supplement of 10% foetal bovine serum except for FTC-133 cells which were incubated in medium with DMEM and Hens (1:1).” left out
(§3) The sensitivity of the cell lines to drug-induced cell growth inhibition was determined using the sulphorhodamine B assay (SRB) as described by Lu et al., Clin Cancer Res. 2001:7:2114-23. […] The absorbance per well was measured at 570 nm on a Victor X3 Multilabel Plate Reader (PerkinElmor, Beaconsfield, United Kingdom). […]

[4] = test system: FTC-133 cells with FLCN expressed at high levels; assay: SRB growth inhibition in FTC-133 cells, high FLCN expression; type: cell-based; settings: Homo sapiens, SRB assay
From the text: as §1, with “786-O is a kidney cancer cell line that harbours an inactivating VHL gene mutation (c.311delG p.G104fs*55). All cell lines were cultured in DMEM with supplement of 10% foetal bovine serum except for FTC-133 cells which were incubated in medium with DMEM and Hens (1:1).” left out
as §3

UOK257-FLCN^− cells [5] = settings: 4×GI50 mithramycin alone
Method: At the end of the time course, media was carefully removed and cells were fixed in 85% ice-cold ethanol. After removal of ethanol, cells were incubated in the dark at 37° C. for 20 minutes in PBS buffers containing 0.1% Triton X-100, 100 mg/mL RNase A and 10 mg/mL Propidium iodide (PI). The 96-well plates were subsequently scanned using the Acumen eX3 cytometer (TTP LabTech).

UOK257-FLCN^− cells [6] = assay: Clonogenic cell survival assay in UOK257-FLCN^− cells
Method: The final concentration of DMSO in the medium was 1%. Four dishes with two seeding densities for each drug concentration were used and at least three experiments were carried out under each set of conditions. […] The cells were incubated for an additional 10-16 days until visible colonies appeared, which were fixed with Carnoy's fixative (methanol:acetic acid 3:1, v:v), and visualized by staining cells in sulphorhodamine B (0.4%). Colonies with over 30 cells were counted. […] Cell survival following drug exposure was expressed as % control cloning efficiency or survival.

Compound: CO[C@H](C(=O)[C@@H](O)[C@@H](C)O)C1Cc2cc3cc(OC4CC(OC5CC(O)C(O)C(C)O5)C(O)C(C)O4)c(C)c(O)c3c(O)c2C(=O)[C@H]1OC1CC(OC2CC(OC3CC(C)(O)C(O)C(C)O3)C(O)C(C)O2)C(O)C(C)O1 (some centres unmarked) [mithramycin, Mithramycin]
- GI50 (UOK257-FLCN^+ cells; 72 hours continuous exposure, mean ± SE (n), read-out: GI50 nM in UOK-FLCN^+): 634 ± 148 nM
- GI50 (UOK257-FLCN^+ cells; Homo sapiens, 72 h, 72 hours continuous exposure, mean ± SE (n), read-out: GI50 nM in UOK-FLCN^+): 634 ± 148 nM
- GI50 (UOK257-FLCN^+ cells; Homo sapiens, read-out: GI50 in FLCN-wt UOK257 cells): 634 ± 148 nM
- ratio of cell viability from UOK257-FLCN^+ and UOK257-FLCN^− (cell death) [1]: 2 fold
- fold greater growth inhibitory sensitivity in 786-O mutant VHL versus wt VHL [2]: ~3 fold
- GI50 ([2]; Homo sapiens, 786-0, 72 h, read-out: GI50 in 786-O cells with mutant VHL): 117 ± 37 nM
- GI50 [3]: 38.7 ± 10.4 nM
- GI50 ([3]; 72 hours): 38.7 ± 10.4 nM
- GI50 [4]: 35.3 ± 7.3 nM
- GI50 ([4]; 72 hours): 35.3 ± 7.3 nM
- lengthening of the S and G2-M time (UOK257-FLCN^− cells [5]): 100%
- fold more cytotoxic to FLCN-null than FLCN-wild type UOK257 cells (clonogenic survival) (UOK257-FLCN^− cells [6]; 200 nM where stated): ~10 fold
- viable cells (clonogenic survival), UOK-257 cells without FLCN expression (UOK257-FLCN^− cells [6]; 200 nM, 72 hrs exposure): less than 8%
- cells survived (clonogenic), UOK257-FLCN^− cells (UOK257-FLCN^− cells [6]; 500 nM, 72 hrs exposure): less than 0.1%
